This is an account of results in US11591322B2, “Certain chemical compositions and methods of use thereof” (Algen Biotechnologies, Inc., priority 2020, dated 2023).

In general, EC50 refers to the concentration giving half of the maximal effect. Low readings indicate a more potent agent, high ones a less potent agent. As usually defined, the IC50 is the concentration needed to halve the response being measured. Low values mean inhibition by little substance, high ones a need for much substance.

Structures are written as SMILES.

Data set [1] in a line: Pharmacokinetic and tissue distribution study, liver versus blood in mice. Format: in vivo. Conditions: CD-1 mice, single oral dose 5 mg/kg suspension, 2 hours; compared with NVP-2 (FIG. 1). The method, then: For mice experiments, the liver and blood pharmacokinetics of compounds were analyzed in CD-1 mice following a single oral administration dose of 5 mg/kg compound suspension.
Liver and blood samples for determination of compound concentration were obtained at 2 hours following administration of compounds (n=3 for each compound). The ratios of compound concentrations in liver versus blood in CD-1 mice following a single oral administration dose of 5 mg/kg compound suspension are summarized in FIG. 1.

In another data set the test system is Hep3B cells. Nature of the data set: Cancer cell viability assay (CellTiter-Glo 2.0), Hep3B. Format: cell-based, Human. The settings on record: 72 hours compound treatment. The method, then:
(§1) Human liver cancer cell lines HepG2, Hep3B, Huh7, and SK-HEP-1 cells were rinsed and trypsinized with 0.25% trypsin (Corning #25-053-CI) in an incubator at 37° C. until detached. The cells were resuspended and seeded in 96-well plates to a density of 5,000 cells per well. Following cell adhesion, compounds were added to a final concentration of 2× dilution. 72 hours following compound treatment, CellTiter-Glo® 2.0 was added to the well in a 2:1 ratio of media/CellTiter-Glo® 2.0. The plates were shielded from light, shaken for 2 minutes, and incubated for 10 minutes. Luminescence was measured on a microplate reader and EC50 values were calculated using Prism 9 software.

In a further data set the target is CDK9/CyclinT (Homo sapiens (Human), UniProt P50750). Nature of the data set: CDK9 biochemical assay (Kinase-Glo Max luminescence). The settings on record: 30° C. for 45 minutes. How it is done:
To each well of a 96-well plate was added 5× kinase assay buffer with 10 mM DTT (6 μL), 500 μM ATP (1 μL), 5×CDK substrate (10 μL), and water (8 μL). 5 μL of compound were added to the test and positive control groups, while 5 μL of solvent was added to the blank groups. 100 ng of CDK9/CyclinT in 20 μL water was added to the test and positive control groups, while 20 μL of 1× kinase assay buffer was added to the blank groups. The reaction mixtures were incubated at 30° C. for 45 minutes, and 50 μL of Kinase-Glo® Max was added to each well and the plates were shielded from light and incubated for 15 minutes at room temperature. Luminescence was measured on a microplate reader and IC50 values were calculated using Prism 9 software.
Background: In Kinase-Glo more light means more ATP remaining.

The subject of a further data set is HepG2 cells. Nature of the data set: Cancer cell viability assay (CellTiter-Glo 2.0), HepG2. Format: cell-based, Human. Conditions: HepG2, 72 hours compound treatment. The method, then:
as §1

Another data set relates to SK-HEP-1 cells. Kind of data set: Cancer cell viability assay (CellTiter-Glo 2.0), SK-HEP-1. Format: cell-based, Human. Conditions: SK-HEP-1, 72 hours compound treatment. The method, then: as §1
For another data set, the system named is Huh7 cells. Kind of data set: Cancer cell viability assay (CellTiter-Glo 2.0), Huh7. Format: cell-based, Human. Conditions: Huh7, 72 hours compound treatment. The method, then:
as §1
(ATP-based viability assays read luminescence as a measure of living cells.)

Data set [2] is described as follows: Pharmacokinetic study, jugular vein versus portal vein blood in rats. Format: in vivo, Sprague-Dawley (SD) rats. The settings on record: SD rats, single oral dose 5 mg/kg suspension; compared with NVP-2 (FIG. 2). How it is done:
For rat experiments, the pharmacokinetics of compounds in blood collected from jugular vein and portal vein were analyzed in Sprague-Dawley (SD) rats following a single oral administration dose of 5 mg/kg compound suspension. Blood samples for determination of compound concentration were obtained from jugular vein and portal vein at 0.25 h, 0.5 h, 1 h, 2 h, 4 h, 6 h, 8 h, and 24 h following administration of compounds (n=3 for each compound). Collected liver and blood samples were analyzed using an LC-MS/MS method to quantify compound concentrations. The ratios of compound concentrations in blood collected from jugular vein versus portal vein in Sprague-Dawley (SD) rats following a single oral administration dose of 5 mg/kg compound suspension are summarized in FIG. 2.

The nature of data set [3]: Tolerability and safety assessment study (body weight change). Format: in vivo. The settings on record: BALB/c nude mice; compared with NVP-2 (FIG. 3). How it is done:
Based on the body weight, BALB/c nude mice were randomly assigned to respective groups using a computer-generated randomization procedure. Body weights of all animals were measured daily to record weight changes (relative to day 1) of BALB/c nude mice treated with vehicle and compounds. For routine monitoring, all study animals were monitored for behavior such as mobility, food and water consumption, body weight, eye/hair matting and any other abnormal effect. Any mortality and/or abnormal clinical signs were recorded. The animals were euthanized when they lost significant body mass (emaciated, obvious body weight loss >20%).

Chain of CDK9/CyclinT (P50750 whole entry): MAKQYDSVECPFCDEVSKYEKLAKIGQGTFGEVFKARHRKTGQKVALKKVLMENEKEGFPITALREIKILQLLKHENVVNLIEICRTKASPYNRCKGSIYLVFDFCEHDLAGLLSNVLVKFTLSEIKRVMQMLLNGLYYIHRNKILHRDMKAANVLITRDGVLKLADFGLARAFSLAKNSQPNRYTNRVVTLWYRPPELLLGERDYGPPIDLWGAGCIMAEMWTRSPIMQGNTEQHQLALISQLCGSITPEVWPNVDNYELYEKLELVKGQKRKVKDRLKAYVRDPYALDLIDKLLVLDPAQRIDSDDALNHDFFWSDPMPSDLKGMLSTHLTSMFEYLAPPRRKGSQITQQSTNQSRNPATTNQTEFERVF
Chain of CDK9/CyclinT (O60563 whole entry partner): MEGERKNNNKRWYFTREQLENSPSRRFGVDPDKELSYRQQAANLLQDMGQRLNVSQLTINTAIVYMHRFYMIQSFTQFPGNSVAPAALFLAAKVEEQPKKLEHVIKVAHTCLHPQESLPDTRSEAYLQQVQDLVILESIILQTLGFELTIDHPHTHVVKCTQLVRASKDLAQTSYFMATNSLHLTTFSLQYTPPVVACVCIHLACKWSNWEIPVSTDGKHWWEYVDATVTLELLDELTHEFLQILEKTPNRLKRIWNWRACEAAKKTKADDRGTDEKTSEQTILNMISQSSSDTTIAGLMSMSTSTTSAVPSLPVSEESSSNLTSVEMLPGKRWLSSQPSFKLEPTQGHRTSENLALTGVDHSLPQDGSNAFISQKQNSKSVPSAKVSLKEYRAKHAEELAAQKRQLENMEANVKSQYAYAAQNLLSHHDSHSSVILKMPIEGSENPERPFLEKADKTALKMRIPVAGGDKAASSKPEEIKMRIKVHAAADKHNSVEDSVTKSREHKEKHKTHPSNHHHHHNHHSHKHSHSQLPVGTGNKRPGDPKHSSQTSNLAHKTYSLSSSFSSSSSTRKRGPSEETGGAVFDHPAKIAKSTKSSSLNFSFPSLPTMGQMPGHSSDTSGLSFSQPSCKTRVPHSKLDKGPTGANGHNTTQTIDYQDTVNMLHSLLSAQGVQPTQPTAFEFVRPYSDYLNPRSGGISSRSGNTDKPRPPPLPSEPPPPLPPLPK

Regarding `C[C@H](COCCNS(=O)(=O)C(F)(F)F)NC1CCC(Nc2cc(-c3cccc(NCC4(C#N)CCOCC4)n3)c(Cl)cn2)CC1` (mixture of isomers) [Compound 40, N-(2-(2-(((1r,4r)-4-((5′-chloro-6-(((4-cyanotetrahydro-2H-pyran-4-yl)methyl)amino)-[2,4′-bipyridin]-2′-yl)amino)cyclohexyl)amino)propoxy)ethyl)-1,1,1-trifluoromethanesulfonamide], in data set [1], the “ratio of compound concentrations in liver versus blood” value (“ratio … in liver versus blood” for short) is listed as “higher liver/blood ratios than NVP-2”. In addition, the EC50 in the data set with Hep3B cells is 100 to 500 nM; with HepG2 cells, less than 100 nM. Further, on CDK9/CyclinT, the IC50 fell in the range of 2.5 to 5 nM.
Regarding `C[C@H](COCc1nn[nH]n1)N[C@H]1CC[C@H](Nc2cc(-c3cccc(NCC4(C#N)CCOCC4)n3)c(Cl)cn2)CC1` [Compound 2, 4-(((2′-(((1R,4R)-4-(((R)-1-((2H-tetrazol-5-yl)methoxy)propan-2-yl)amino)cyclohexyl)amino)-5′-chloro-[2,4′-bipyridin]-6-yl)amino)methyl)tetrahydro-2H-pyran-4-carbonitrile], the EC50 in the data set with Hep3B cells is greater than 1000 nM; with SK-HEP-1 cells, greater than 1000 nM; in the data set with HepG2 cells, greater than 1000 nM; in the data set with Huh7 cells, 500 to 1000 nM. The compound also came in with an IC50 on CDK9/CyclinT greater than 10 nM.
For `CCOC(=O)COC[C@H](C)NC1CCC(Nc2cc(-c3cccc(NCC4(C#N)CCOCC4)n3)c(Cl)cn2)CC1` (stereo partly drawn) [Compound 6], the EC50 is 100 to 500 nM in the data set on Hep3B cells, less than 100 nM in the data set with SK-HEP-1 cells, 500 to 1000 nM in the data set with HepG2 cells and less than 100 nM in the data set with Huh7 cells. On CDK9/CyclinT, the IC50 is less than 2.5 nM. Further, in data set [2], the “ratio of compound concentrations in blood from jugular vein versus portal vein (liver efflux/influx ratio)” value was “lower liver efflux/influx ratio than NVP-2”.
On to `C[C@H](COCC(=O)O)NC1CCC(Nc2cc(-c3cccc(NCC4(C#N)CCOCC4)n3)c(Cl)cn2)CC1` (stereo partly drawn) [Compound 8, 2-((R)-2-(((1R,4R)-4-((5′-chloro-6-(((4-cyanotetrahydro-2H-pyran-4-yl)methyl)amino)-[2,4′-bipyridin]-2′-yl)amino)cyclohexyl)amino)propoxy)acetic acid], for which the IC50 against CDK9/CyclinT fell in the range of 2.5 to 5 nM. Also, the concentration giving a half-maximal response (EC50) with SK-HEP-1 cells, with HepG2 cells and in the data set with Huh7 cells was greater than 1000 nM in each case.
As for `C[C@@H](COCC(=O)O)NC1CCC(Nc2cc(-c3cccc(NCC4(C#N)CCOCC4)n3)c(Cl)cn2)CC1` (stereo partly drawn) [Compound 9, 2-((S)-2-(((1R,4S)-4-((5′-chloro-6-(((4-cyanotetrahydro-2H-pyran-4-yl)methyl)amino)-[2,4′-bipyridin]-2′-yl)amino)cyclohexyl)amino)propoxy)acetic acid], the EC50 in the data set with Hep3B cells, with SK-HEP-1 cells, with HepG2 cells and with Huh7 cells was greater than 1000 nM each time. For the same compound, the half-maximal inhibitory concentration (IC50) at CDK9/CyclinT was in the range of 5 to 10 nM.
As for `CC(C)OC(=O)COC[C@@H](C)N[C@H]1CC[C@H](Nc2cc(-c3cccc(NCC4(C#N)CCOCC4)n3)c(Cl)cn2)CC1` [Compound 15, isopropyl 2-((R)-2-(((1r,4R)-4-((5′-Chloro-6-(((4-Cyanotetrahydro-2H-pyran-4-yl)methyl)amino)-[2,4′-bipyridin]-2′-yl)amino)cyclohexyl)amino)propoxy)acetate], the IC50 against CDK9/CyclinT fell in the range of 2.5 to 5 nM. In addition, the 50% effective concentration (EC50) with SK-HEP-1 cells, in the data set with HepG2 cells and in the data set with Huh7 cells was less than 100 nM in each case.
In the case of `CC(C)OC(=O)COC[C@H](C)N[C@H]1CC[C@H](Nc2cc(-c3cccc(NCC4(C#N)CCOCC4)n3)c(Cl)cn2)CC1` [Compound 16, isopropyl 2-((S)-2-(((1r,4S)-4-((5′-chloro-6-(((4-cyanotetrahydro-2H-pyran-4-yl)methyl)amino)-[2,4′-bipyridin]-2′-yl)amino)cyclohexyl)amino)propoxy)acetate], the IC50 against CDK9/CyclinT was 5 to 10 nM. Also, the values for the EC50 in the data set with SK-HEP-1 cells, with HepG2 cells and with Huh7 cells were less than 100 nM, 100 to 500 nM and less than 100 nM, respectively.
Regarding `C[C@H](COCC(=O)OC(C)(C)C)N[C@H]1CC[C@H](Nc2cc(-c3cccc(NCC4(C#N)CCOCC4)n3)c(Cl)cn2)CC1` [Compound 18, tert-butyl 2-((R)-2-(((1r,4R)-4-((5′-chloro-6-(((4-cyanotetrahydro-2H-pyran-4-yl)methyl)amino)-[2,4′-bipyridin]-2′-yl)amino)cyclohexyl)amino)propoxy)acetate], the “ratio … in liver versus blood” value in data set [1] is reported as “higher liver/blood ratios than NVP-2”. The EC50 in the data set with Hep3B cells, in the data set with SK-HEP-1 cells, in the data set with HepG2 cells and in the data set with Huh7 cells was less than 100 nM throughout. Besides, the IC50 on CDK9/CyclinT is greater than 10 nM. In data set [2], the “ratio of compound concentrations in blood from jugular vein versus portal vein (liver efflux/influx ratio)” value was “lower liver efflux/influx ratio than NVP-2”. Further, in data set [3], the “toxicity (mean weight changes relative to day 1)” value is listed as “lower toxicity than NVP-2”.
Take `C[C@@H](COCC(=O)OC(C)(C)C)N[C@H]1CC[C@H](Nc2cc(-c3cccc(NCC4(C#N)CCOCC4)n3)c(Cl)cn2)CC1` [Compound 19, tert-butyl 2-((S)-2-(((1r,4S)-4-((5′-chloro-6-(((4-cyanotetrahydro-2H-pyran-4-yl)methyl)amino)-[2,4′-bipyridin]-2′-yl)amino)cyclohexyl)amino)propoxy)acetate]: the IC50 on CDK9/CyclinT lay within 2.5 to 5 nM. The EC50 with SK-HEP-1 cells, in the data set with HepG2 cells and in the data set on Huh7 cells was less than 100 nM throughout.
On to `C[C@H](COCc1nnn(C)n1)N[C@H]1CC[C@H](Nc2cc(-c3cccc(NCC4(C#N)CCOCC4)n3)c(Cl)cn2)CC1` [Compound 33, 4-(((5′-chloro-2′-(((1R,4r)-4-(((R)-1-((2-methyl-2H-tetrazol-5-yl)methoxy)propan-2-yl)amino)cyclohexyl)amino)-[2,4′-bipyridin]-6-yl)amino)methyl)tetrahydro-2H-pyran-4-carbonitrile], for which the “ratio … in liver versus blood” value in data set [1] is “higher liver/blood ratios than NVP-2”. Also, the EC50 in the data set with Hep3B cells is 100 to 500 nM; with HepG2 cells it was less than 100 nM. The same compound yielded an IC50 at CDK9/CyclinT of 5 to 10 nM.
